Results: PubChem BioAssay AID1963849 (Molecular Pharmacology Branch, DTP, NCI, 2024)
Values joined by “and” are separate entries in the source; they are usually repeats but may differ in a detail not shown here. Equal entries are not always repeated.

Tested on: 299254-011-R-J1-PDC complex spheroid viability
Test: Anticancer human tumor 299254-011-R-J1-PDC patient-derived melanoma cell line growth inhibition [POLQ]
Conditions: for viability, T/C: stronger effect = lower value
Description: Multicellular complex tumor spheroid response to Polymerase (POL) inhibitors (novobiocin, ART-558, RP6685) in combination with a variety of drugs and investigational agents in selected tumor cell lines
The POL inhibitors (novobiocin, ART-558, and RP6685) were evaluated both individually and in combination with standard of care and investigational anticancer small molecules within a complex spheroid model of solid tumors. . Complex spheroids include a stromal component modeled by human endothelial cells (HUVEC) and fibroblasts modeled by human mesenchymal stem cells (MSCs). The concentration ranges selected for each drug and investigational agent were based upon clinically achievable concentrations if the clinical Cmax of the agent was known.
Compounds. The drugs and investigational agents: novobiocin (NSC847541), ART-558 (NSC835418), RP-6685 (NSC848927), peposertib (NSC802822), ceralasertib (NSC780249), elimusertib (NSC800525), camonsertib (NSC841442), AZD-1390 (NSC803789), olaparib (NSC753686), talazoparib (NSC767125), rucaparib (NSC756644), sotorasib (NSC818433), MRTX-1133 (NSC836407), SN-38 (NSC673596), topotecan (NSC609699), epotoside (NSC141540), doxorubicin (NSC123127), gemcitabine (NSC613327), 5-fluorouracil (NSC19893), paclitaxel (NSC125973), vemurafenib (NSC761431), MSA-2 (NSC828583), SN-011 (NSC837082), adavosertib (NSC754352), prexasertib (NSC758257), carboplatin (NSC241240) and oxaliplatin (NSC266046), were obtained from the National Cancer Institute (NCI) Developmental Therapeutics Program Chemical Repository (21). The FDA-approved anticancer drug set is available from the Developmental Therapeutics Program at https://dtp.cancer.gov/organization/dscb/obtaining/. […] The stock solutions were prepared in dimethyl sulfoxide (DMSO, Sigma-Aldrich, St. Louis, MO, cat. D2650), except for the platinum compounds which were prepared in saline (Quality Biological, Gaithersburg, MD, cat. 114-055-101), at 800-fold the tested concentration and stored at -70 degrees C prior to their use. All drugs and investigational agents were tested over a range starting from a high concentration at or near the clinical Cmax and decreasing in half-log increments. If the clinical Cmax for an agent had not been determined, the highest concentration tested was 10 microM, except for SN-38, which was tested at a high concentration of 1 microM.
Cell Culture. All cells were maintained in an incubator at 37 degrees C and 5% CO2 with 95% humidity. The PDC lines were cultured according to standard operating procedures established by the NCI PDMR (https://pdmr.cancer.gov). Table 3 of the manuscript, lists the cell lines along with the number of the three cell types plated to form the mct-spheroids and media for tumor cell growth. After thawing, all PDC lines, except 997537-175-T-J1-PDC and 415267-285-R-J2-PDC, were cultured in Matrigel-coated flasks prepared with a working solution of 1X Ham's F-12 nutrient mix, without supplementation (Thermo Fisher Scientific, cat. 11765054), 100 U/mL penicillin-streptomycin (Thermo Fisher Scientific, cat. 15140122), and 2.5% Matrigel (Corning Inc., Corning, NY, cat. 354248) for the first three passages. The two PDC lines 997537-175-T-J1-PDC and 415267-285-R-J2-PDC were cultured on uncoated flasks. The 857933-349-R-J2-PDC line was cultured in 6C/Colon 1B media containing advanced DMEM/F-12 (Thermo Fisher Scientific, cat. 12634028), 10 mM HEPES (Thermo Fisher Scientific, cat. 15630080), 1X GlutaMAX supplement (Thermo Fisher Scientific, cat. 35050061), 0.1 mg/mL primocin (InvivoGen, San Diego, CA, cat. ant-pm-2), 10% defined fetal bovine serum, heat inactivated (HyClone Laboratories Inc., Logan, UT, cat. SH30070.03HI), 50% L-WRN conditioned media (ATCC, cat. CRL-3276), 1.25 mM N-Acetyl-L-cysteine (Sigma-Aldrich, cat. A9165), 10 mM nicotinamide (Sigma-Aldrich, cat. N0636), 1X B-27 supplement (Thermo Fisher Scientific, cat. 17504044), 1X N-2 supplement (Thermo Fisher Scientific, cat. […]
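Note: spheroids exposed to drugs for one week before measurement.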
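Throughout, for viability, T/C: percent viability relative to DMSO vehicle control taken as 100%.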

**Q.** Which results are given for O=C(c1cc(Cc2n[nH]c(=O)c3ccccc23)ccc1F)N1CCN(C(=O)C2CC2)CC1 + Nc1ccc(C#CCN(C(=O)Cc2ncc(C(F)(F)F)cc2C(F)(F)F)c2ccc(F)cc2)nn1?
**A.** IC50 (curve of first compound, second compound 0.0316 µM): > 10 µM; IC50 (curve of first compound, second compound 0.1 µM): > 10 µM; IC50 (curve of first compound, second compound 0.316 µM): > 10 µM; IC50 (curve of first compound, second compound 1 µM): > 10 µM; IC50 (curve of first compound, second compound 3.16 µM): > 10 µM; IC50 (curve of first compound, second compound 10 µM): > 10 µM; viability, T/C (second compound 0.0316 µM, first compound 0.0316 µM): 120%; viability, T/C (second compound 0.0316 µM, first compound 0.1 µM): 96.6%; viability, T/C (second compound 0.0316 µM, first compound 0.316 µM): 92.4%; viability, T/C (second compound 0.0316 µM, first compound 1 µM): 91.7%; viability, T/C (second compound 0.0316 µM, first compound 3.16 µM): 107%; viability, T/C (second compound 0.0316 µM, first compound 10 µM): 95.6%; viability, T/C (second compound 0.1 µM, first compound 0.0316 µM): 94%; viability, T/C (second compound 0.1 µM, first compound 0.1 µM): 105%; viability, T/C (second compound 0.1 µM, first compound 0.316 µM): 97.2%; viability, T/C (second compound 0.1 µM, first compound 1 µM): 95.3%; viability, T/C (second compound 0.1 µM, first compound 3.16 µM): 112%; viability, T/C (second compound 0.1 µM, first compound 10 µM): 88%; viability, T/C (second compound 0.316 µM, first compound 0.0316 µM): 111%; viability, T/C (second compound 0.316 µM, first compound 0.1 µM): 122%; viability, T/C (second compound 0.316 µM, first compound 0.316 µM): 106%; viability, T/C (second compound 0.316 µM, first compound 1 µM): 105%; viability, T/C (second compound 0.316 µM, first compound 3.16 µM): 97.2%; viability, T/C (second compound 0.316 µM, first compound 10 µM): 84.6%; viability, T/C (second compound 1 µM, first compound 0.0316 µM): 105%; viability, T/C (second compound 1 µM, first compound 0.1 µM): 95.4%; viability, T/C (second compound 1 µM, first compound 0.316 µM): 100%; viability, T/C (second compound 1 µM, first compound 1 µM): 110%; viability, T/C (second compound 1 µM, first compound 3.16 µM): 109%; viability, T/C (second compound 1 µM, first compound 10 µM): 85.3%; viability, T/C (second compound 3.16 µM, first compound 0.0316 µM): 103%; viability, T/C (second compound 3.16 µM, first compound 0.1 µM): 96.7%; viability, T/C (second compound 3.16 µM, first compound 0.316 µM): 94.8%; viability, T/C (second compound 3.16 µM, first compound 1 µM): 113%; viability, T/C (second compound 3.16 µM, first compound 3.16 µM): 93.8%; viability, T/C (second compound 3.16 µM, first compound 10 µM): 71%; viability, T/C (second compound 10 µM, first compound 0.0316 µM): 89.1%; viability, T/C (second compound 10 µM, first compound 0.1 µM): 98.5%; viability, T/C (second compound 10 µM, first compound 0.316 µM): 113%; viability, T/C (second compound 10 µM, first compound 1 µM): 88.8%; viability, T/C (second compound 10 µM, first compound 3.16 µM): 99.4%; viability, T/C (second compound 10 µM, first compound 10 µM): 63.5%

**Q.** For C=CC(=O)N1CCN(c2nc(=O)n(-c3c(C)ccnc3C(C)C)c3nc(-c4c(O)cccc4F)c(F)cc23)C(C)C1 (stereo unspecified), which viability, T/C (compound 0.0316 µM) is on record?
**A.** The viability, T/C was 84.9% and 90.1% and 80.7%.

**Q.** And the viability, T/C (compound 0.1 µM)?
**A.** The viability, T/C was 71.5% and 77.5% and 66.9%.

**Q.** And the viability, T/C (compound 0.316 µM)?
**A.** The viability, T/C was 85.2% and 74.5% and 70.9%.

**Q.** What about the viability, T/C (compound 1 µM) of the same compound?
**A.** The viability, T/C was 72.8% and 66.9% and 60.2%.

**Q.** What about the viability, T/C (compound 3.16 µM) of the same compound?
**A.** Its viability, T/C is 63.5% and 85.5% and 63%.

**Q.** What about the viability, T/C (compound 10 µM) of the same compound?
**A.** The viability, T/C was 66.1% and 77.9% and 62.6%.

**Q.** And the IC50 (curve of compound)?
**A.** The IC50 was greater than 10 µM.

**Q.** COc1cccc2c1C(=O)c1c(O)c3c(c(O)c1C2=O)CC(O)(C(=O)CO)CC3OC1CC(N)C(O)C(C)O1 (stereo unspecified) was tested. Which viability, T/C (compound 0.0316 µM) did it give?
**A.** The viability, T/C was 83.7% and 89.6% and 90%.

**Q.** What about the viability, T/C (compound 0.1 µM) of the same compound?
**A.** The viability, T/C was 80.1% and 91.1% and 93.3%.

**Q.** What about the viability, T/C (compound 0.316 µM) of the same compound?
**A.** Its viability, T/C is 69.1% and 73.4% and 55.2%.

**Q.** And the viability, T/C (compound 1 µM)?
**A.** Its viability, T/C is 59% and 60.7% and 46%.

**Q.** What about the viability, T/C (compound 3.16 µM) of the same compound?
**A.** The viability, T/C was 9.86% and 15.5% and 12%.

**Q.** And the viability, T/C (compound 10 µM)?
**A.** The viability, T/C was 0.74% and 1.67% and 3.35%.

**Q.** What about the IC50 (curve of compound) of the same compound?
**A.** Its IC50 is 1.19 µM and 1.2 µM and 0.612 µM.
